Molecular target: T1, OppA^WT (OppA, P100), wild type purified from M. hominis (Metamycoplasma hominis, UniProt Q49551)
T1 construct: native lipoprotein, solubilised with N-dodecylmaltoside from membranes and isolated with sepharose-coupled antibody DC10; phosphorylated
Assay: ammonium molybdate ATPase assay, inhibitor preincubated […] min
Format: biochemical
Details: 200 μM inhibitor

T1 sequence (Q49551 entry or part of it): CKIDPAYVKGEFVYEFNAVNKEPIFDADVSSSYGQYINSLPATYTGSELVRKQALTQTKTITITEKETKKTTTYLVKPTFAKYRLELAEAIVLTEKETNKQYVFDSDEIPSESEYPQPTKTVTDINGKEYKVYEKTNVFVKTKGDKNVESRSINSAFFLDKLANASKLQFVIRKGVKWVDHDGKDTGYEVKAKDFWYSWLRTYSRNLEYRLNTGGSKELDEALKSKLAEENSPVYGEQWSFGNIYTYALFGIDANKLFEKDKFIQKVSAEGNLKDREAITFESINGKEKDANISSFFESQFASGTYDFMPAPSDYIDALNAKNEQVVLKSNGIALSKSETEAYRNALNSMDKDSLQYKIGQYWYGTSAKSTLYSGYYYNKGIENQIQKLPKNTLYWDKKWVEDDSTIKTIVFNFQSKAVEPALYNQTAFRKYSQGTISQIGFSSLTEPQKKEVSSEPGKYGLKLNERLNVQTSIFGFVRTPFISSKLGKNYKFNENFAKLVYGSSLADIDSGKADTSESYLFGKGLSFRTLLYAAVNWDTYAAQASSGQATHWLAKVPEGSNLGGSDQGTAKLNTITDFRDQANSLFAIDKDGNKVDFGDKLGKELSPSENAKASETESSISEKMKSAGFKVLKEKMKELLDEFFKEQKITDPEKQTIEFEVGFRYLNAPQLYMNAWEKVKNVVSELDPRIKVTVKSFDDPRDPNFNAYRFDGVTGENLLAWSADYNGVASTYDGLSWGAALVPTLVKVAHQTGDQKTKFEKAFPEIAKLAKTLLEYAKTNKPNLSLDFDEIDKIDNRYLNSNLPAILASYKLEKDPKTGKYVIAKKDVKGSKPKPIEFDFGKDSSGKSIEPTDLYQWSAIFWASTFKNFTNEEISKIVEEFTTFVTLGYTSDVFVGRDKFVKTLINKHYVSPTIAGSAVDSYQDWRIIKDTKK

Compound: O=S(=O)(O)c1cc(N=C=S)ccc1/C=C/c1ccc(N=C=S)cc1S(=O)(=O)O [DIDS, 4,4'-diisothiocyano-2,2'-stilbene-disulfonic acid]
- relative ATPase activity at 200 μM: OppA was neither able to hydrolyze ATP (Figure 3A)

— PMC3179953, “In Mycoplasma hominis the OppA-mediated cytoadhesion depends on its ATPase activity” (BMC Microbiology, 2011)
